Results reported in patent US20070117770A1, “Human ribosomal DNA (rDNA) and ribosomal RNA (rRNA) nucleic acids and uses thereof” (Cylene Pharmaceuticals, Inc., priority 2005, published 2007).

Assays:
Experiment in all cases: Protein kinase inhibition assay
Assay type in all cases: biochemical
[1] = molecular target: GSK3β(h) (Homo sapiens, UniProt P49841); details: read-out: percent residual activity of GSK3β(h)
Protocol: (§1) Certain compounds were tested for activity in protein kinase inhibition assays. All substrates were dissolved and diluted to working stocks in de-ionized water, apart from histone H1 (10× working stock in 20 mM MOPS pH 7.0), PDKtide (10× working stock in 50 mM Tris pH 7.0) ATF2 (which is typically stored at a 20× working stock in 50 mM Tris pH 7.5, 150 mM NaCl, 0.1 mM EGTA, 0.03% Brij-35, 50% glycerol, 1 mM benzamidine, 0.2 mM PMSF and 0.1% R-mercaptoethanol), KKLNRTLSFAEPG (SEQ ID NO:203) and RRRLSFAEPG (SEQ ID NO:204) (50 mM HEPES pH 7.4) and GGEEEEYFELVKKKK (SEQ ID NO:205) (20 mM MOPS pH 7.0). All kinases were pre-diluted to a 10× working concentration prior to addition into the assay. The composition of the dilution buffer for each kinase is detailed below.
In a final reaction volume of 25 μl, GSK3β (h) (5-10 mU) is incubated with 8 mM MOPS pH 7.0, 0.2 mM EDTA, 20 μM […](p)EDEEE (SEQ ID NO:221) (phospho GS2 peptide), 10 mM MgAcetate and [gamma-33P-ATP] (specific activity approx. 500 cpm/pmol, concentration as required). The reaction is initiated by the addition of the MgATP mix. After incubation for 40 minutes at room temperature, the reaction is stopped by the addition of 5 μl of a 3% phosphoric acid solution. […]

[2] = molecular target: PKCι(h) (Homo sapiens, UniProt P41743); details: read-out: percent residual activity of PKCι(h)
PKCι(h), sequence (P41743 whole entry): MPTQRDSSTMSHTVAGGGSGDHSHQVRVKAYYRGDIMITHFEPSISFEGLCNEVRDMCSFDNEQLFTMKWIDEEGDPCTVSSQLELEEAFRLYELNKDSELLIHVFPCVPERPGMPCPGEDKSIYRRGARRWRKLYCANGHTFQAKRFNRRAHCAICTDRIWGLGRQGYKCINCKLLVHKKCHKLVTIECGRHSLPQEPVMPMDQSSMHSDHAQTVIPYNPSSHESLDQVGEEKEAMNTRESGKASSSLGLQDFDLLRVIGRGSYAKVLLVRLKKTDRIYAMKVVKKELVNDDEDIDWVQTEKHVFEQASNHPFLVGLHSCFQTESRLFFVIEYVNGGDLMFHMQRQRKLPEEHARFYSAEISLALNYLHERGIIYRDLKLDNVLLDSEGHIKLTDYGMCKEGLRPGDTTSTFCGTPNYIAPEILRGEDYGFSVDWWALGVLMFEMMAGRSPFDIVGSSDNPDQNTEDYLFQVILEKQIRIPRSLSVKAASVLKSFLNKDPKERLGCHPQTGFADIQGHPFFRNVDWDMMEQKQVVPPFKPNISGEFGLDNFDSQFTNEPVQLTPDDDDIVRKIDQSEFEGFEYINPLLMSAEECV
Protocol: as §1
(§2) In a final reaction volume of 25 μl, PKCι (h) (5-10 mU) is incubated with 20 mM HEPES pH 7.4, 0.03%. Triton X-100, 50 μM ERMRPRKRQGSVRRRV (SEQ ID NO:224), 10 mM MgAcetate and [gamma-33P-ATP] (specific activity approx. 500 cpm/pmol, concentration as required). The reaction is initiated by the addition of the MgATP mix. After incubation for 40 minutes at room temperature, the reaction is stopped by the addition of 5 μl of a 3% phosphoric acid solution. […]

[3] = molecular target: Syk(h) (Homo sapiens, UniProt P43405); details: read-out: percent residual activity of Syk(h)
Protocol: as §1
as §2, with “Syk” for “PKCι”, “50” for “20”, “Tris” for “HEPES”, “7.5, 0.1 mM EGTA, 0.1 mM Na3VO4, 0.1% R-mercaptoethanol, 0.1 mg/ml poly(Glu, Tyr) 4:1,” for “7.4, 0.03%. Triton X-100, 50 μM ERMRPRKRQGSVRRRV (SEQ ID NO:224),”

[4] = molecular target: JNK1α1(h) (Homo sapiens, UniProt P45983); details: read-out: percent residual activity of JNK1α1(h)
JNK1α1(h), sequence (P45983 1-384 isoform P45983-2): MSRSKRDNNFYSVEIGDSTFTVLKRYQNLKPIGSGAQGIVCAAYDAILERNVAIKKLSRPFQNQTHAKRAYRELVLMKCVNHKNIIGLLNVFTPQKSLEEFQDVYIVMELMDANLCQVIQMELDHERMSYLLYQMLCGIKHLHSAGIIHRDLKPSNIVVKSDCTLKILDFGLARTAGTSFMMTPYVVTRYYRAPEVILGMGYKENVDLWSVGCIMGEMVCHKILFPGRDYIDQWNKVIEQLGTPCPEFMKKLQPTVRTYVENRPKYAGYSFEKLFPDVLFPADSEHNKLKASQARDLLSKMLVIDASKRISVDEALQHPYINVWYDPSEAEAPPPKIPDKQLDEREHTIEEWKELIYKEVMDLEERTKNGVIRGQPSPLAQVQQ
Protocol: as §1
(§3) In a final reaction volume of 25 μl, JNK1α (h) (5-10 mU) is incubated with 50 mM Tris pH 7.5, 0.1 mM EGTA, 0.1% R-mercaptoethanol, 3 μM ATF2, 10 mM MgAcetate and [gamma-33P-ATP] (specific activity approx. 500 cpm/pmol, concentration as required). The reaction is initiated by the addition of the MgATP mix. After incubation for 40 minutes at room temperature, the reaction is stopped by the addition of 5 μl of a 3% phosphoric acid solution. 10 μl of the reaction is then spotted onto a P30 filtermat and washed three times for 5 minutes in 75 mM phosphoric acid and once in methanol prior to drying and scintillation counting.

[5] = molecular target: CDK2/cyclinA(h) (Homo sapiens, UniProt P24941); details: read-out: percent residual activity of CDK2/cyclinA(h)
Protocol: as §1
as §3, with “μl, CDK2/cyclinA” for “μl, JNK1α”, “with 8” for “with 50”, “mM MOPS” for “mM Tris”, “pH 7.0, 0.2 mM EDTA,” for “pH 7.5,”, “0.1 mg/ml histone H1,” for “0.1 mM EGTA, 0.1% R-mercaptoethanol, 3 μM ATF2,”

[6] = molecular target: IRR(h) (Homo sapiens, UniProt P14616); details: read-out: percent residual activity of IRR(h)
IRR(h), sequence (P14616 27-1297): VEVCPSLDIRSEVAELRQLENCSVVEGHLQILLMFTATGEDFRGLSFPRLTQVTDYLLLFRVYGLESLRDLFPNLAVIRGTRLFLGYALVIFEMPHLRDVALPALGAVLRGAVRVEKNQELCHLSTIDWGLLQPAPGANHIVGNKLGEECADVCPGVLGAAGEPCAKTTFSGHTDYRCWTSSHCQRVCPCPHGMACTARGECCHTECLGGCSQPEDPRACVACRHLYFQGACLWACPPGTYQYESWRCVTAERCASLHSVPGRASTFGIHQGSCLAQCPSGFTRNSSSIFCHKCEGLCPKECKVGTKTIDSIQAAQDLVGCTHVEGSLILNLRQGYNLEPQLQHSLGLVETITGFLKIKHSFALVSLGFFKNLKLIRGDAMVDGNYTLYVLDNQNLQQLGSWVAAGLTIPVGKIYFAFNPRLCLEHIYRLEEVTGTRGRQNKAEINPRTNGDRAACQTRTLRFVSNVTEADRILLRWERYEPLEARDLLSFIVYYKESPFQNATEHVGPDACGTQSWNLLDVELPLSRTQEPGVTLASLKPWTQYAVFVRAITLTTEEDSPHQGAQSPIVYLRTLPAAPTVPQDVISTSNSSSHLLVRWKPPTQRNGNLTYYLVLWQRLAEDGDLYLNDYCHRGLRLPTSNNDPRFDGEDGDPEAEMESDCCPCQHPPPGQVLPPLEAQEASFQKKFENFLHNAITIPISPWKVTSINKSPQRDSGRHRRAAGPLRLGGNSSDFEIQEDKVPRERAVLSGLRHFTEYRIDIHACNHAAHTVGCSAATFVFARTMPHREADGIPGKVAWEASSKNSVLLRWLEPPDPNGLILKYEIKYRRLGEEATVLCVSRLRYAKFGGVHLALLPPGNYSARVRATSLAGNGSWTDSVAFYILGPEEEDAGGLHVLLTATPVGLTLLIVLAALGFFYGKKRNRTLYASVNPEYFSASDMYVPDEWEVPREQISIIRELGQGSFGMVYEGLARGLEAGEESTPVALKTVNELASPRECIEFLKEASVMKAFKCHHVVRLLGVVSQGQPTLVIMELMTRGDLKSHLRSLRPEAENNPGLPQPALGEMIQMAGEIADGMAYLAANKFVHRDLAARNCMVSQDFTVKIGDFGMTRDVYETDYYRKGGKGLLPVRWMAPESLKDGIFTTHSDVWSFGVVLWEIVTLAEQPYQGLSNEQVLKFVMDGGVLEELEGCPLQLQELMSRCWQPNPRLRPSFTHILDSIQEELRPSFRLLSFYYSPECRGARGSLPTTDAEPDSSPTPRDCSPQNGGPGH
Protocol: as §1
as §3, with “μl, IRR” for “μl, JNK1α”, “with 8” for “with 50”, “mM MOPS” for “mM Tris”, “pH 7.0, 0.2” for “pH 7.5, 0.1”, “mM EDTA, 0.33 mg/ml myelin basic protein,” for “mM EGTA, 0.1% R-mercaptoethanol, 3 μM ATF2,”

GSK3β(h), sequence (P49841 whole entry): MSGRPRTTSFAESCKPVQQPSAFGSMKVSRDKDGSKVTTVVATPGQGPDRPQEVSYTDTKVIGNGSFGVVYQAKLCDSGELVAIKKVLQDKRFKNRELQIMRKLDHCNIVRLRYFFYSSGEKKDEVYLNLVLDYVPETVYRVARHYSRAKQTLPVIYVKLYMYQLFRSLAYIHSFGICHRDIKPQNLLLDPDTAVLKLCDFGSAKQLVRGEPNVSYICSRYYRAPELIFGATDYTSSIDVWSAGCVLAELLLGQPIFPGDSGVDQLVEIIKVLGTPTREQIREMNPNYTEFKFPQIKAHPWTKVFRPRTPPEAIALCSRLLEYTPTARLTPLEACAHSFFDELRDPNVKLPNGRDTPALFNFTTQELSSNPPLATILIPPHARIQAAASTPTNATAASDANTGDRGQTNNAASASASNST

Compound CN1CCCC1CCNC(=O)c1cn2c3c(c(N4CCC(c5cnccn5)C4)c(F)cc3c1=O)Oc1cc3ccccc3cc1-2 (stereo not drawn) [Compound A-1] has a remaining activity at 2.5 µM [1] of 135%, a remaining activity at 2.5 µM [2] of 72% and a remaining activity at 2.5 µM [3] of 67%. For the same compound, the remaining activity at 2.5 µM [4] was 94%, the remaining activity at 2.5 µM [5] was 86% and the remaining activity at 2.5 µM [6] was 97%.
With CC(=O)N1CCN(c2ccc3c(=O)c(C(=O)NCCN4CCCC4)c4n(C)c5ccccc5n4c3n2)CC1 [Compound B-1] the remaining activity at 2.5 µM [1] was 76%, the remaining activity at 2.5 µM [2] was 95% and the remaining activity at 2.5 µM [3] was 111%. For the same compound, the remaining activity at 2.5 µM [4] was 100%, the remaining activity at 2.5 µM [5] was 94% and the remaining activity at 2.5 µM [6] was 103%.
